Results: the supplement of paper PMC10307832

Legend:
Test in all cases: relative viability (nuclei count vs DMSO), 5 days (fraction); higher = more cells survive
KN-93 + Decitabine = compound: CN(C/C=C/C1=CC=C(C=C1)Cl)CC2=CC=CC=C2N(CCO)S(=O)(=O)C3=CC=C(C=C3)OC [KN-93] + Nc1ncn([C@H]2C[C@H](O)[C@@H](CO)O2)c(=O)n1 [Decitabine] (partner 2 µM)
How it was run: (§1)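 Lung cancer cell lines were seeded in 1536-well plates and dosed by pin tool the next day, with either a single drug or a fixed anchor-drug dose combined with five library-drug doses (not always all listed) spaced in √10 steps. Five days later, one step fixed the cells and stained their nuclei (final 0.05% Triton X-100, 1% formaldehyde, 1 ug/ml Hoechst), and nuclei were counted on 4× images. Relative viability is the nuclei count in treated wells divided by the count in vehicle wells, and each value is the median of duplicate plates.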

KN-93 + Olaparib = compound: CN(C/C=C/C1=CC=C(C=C1)Cl)CC2=CC=CC=C2N(CCO)S(=O)(=O)C3=CC=C(C=C3)OC [KN-93] + O=C(c1cc(Cc2n[nH]c(=O)c3ccccc23)ccc1F)N1CCN(C(=O)C2CC2)CC1 [Olaparib] (partner 8 µM)
How it was run: as §1

KN-93 + Vorinostat = compound: CN(C/C=C/C1=CC=C(C=C1)Cl)CC2=CC=CC=C2N(CCO)S(=O)(=O)C3=CC=C(C=C3)OC [KN-93] + O=C(CCCCCCC(=O)Nc1ccccc1)NO [Vorinostat] (partner 1 µM)
How it was run: as §1

KN-93 + Pemetrexed = compound: CN(C/C=C/C1=CC=C(C=C1)Cl)CC2=CC=CC=C2N(CCO)S(=O)(=O)C3=CC=C(C=C3)OC [KN-93] + Nc1nc2[nH]cc(CCc3ccc(C(=O)N[C@@H](CCC(=O)O)C(=O)O)cc3)c2c(=O)[nH]1 [Pemetrexed] (partner 0.2 µM)
How it was run: as §1

KN-93 + Alpelisib = compound: CN(C/C=C/C1=CC=C(C=C1)Cl)CC2=CC=CC=C2N(CCO)S(=O)(=O)C3=CC=C(C=C3)OC [KN-93] + Cc1nc(NC(=O)N2CCC[C@H]2C(N)=O)sc1-c1ccnc(C(C)(C)C(F)(F)F)c1 [Alpelisib] (partner 2 µM)
How it was run: as §1

Cell Line	relative viability (KN-93 + Decitabine; first compound 0.08 µM)	relative viability (KN-93 + Decitabine; first compound 0.253 µM)	relative viability (KN-93 + Decitabine; first compound 2.53 µM)	relative viability (KN-93 + Decitabine; first compound 8 µM)	relative viability (KN-93 + Olaparib; first compound 0.08 µM)	relative viability (KN-93 + Olaparib; first compound 0.253 µM)	relative viability (KN-93 + Olaparib; first compound 2.53 µM)	relative viability (KN-93 + Olaparib; first compound 8 µM)	relative viability (KN-93 + Vorinostat; first compound 0.08 µM)	relative viability (KN-93 + Vorinostat; first compound 0.253 µM)	relative viability (KN-93 + Vorinostat; first compound 2.53 µM)	relative viability (KN-93 + Vorinostat; first compound 8 µM)	relative viability (KN-93 + Pemetrexed; first compound 0.08 µM)	relative viability (KN-93 + Pemetrexed; first compound 0.253 µM)	relative viability (KN-93 + Pemetrexed; first compound 2.53 µM)	relative viability (KN-93 + Pemetrexed; first compound 8 µM)	relative viability (KN-93 + Alpelisib; first compound 0.08 µM)	relative viability (KN-93 + Alpelisib; first compound 0.253 µM)	relative viability (KN-93 + Alpelisib; first compound 2.53 µM)	relative viability (KN-93 + Alpelisib; first compound 8 µM)
201T	0.866	0.887	0.758	0.583	0.847	0.857	0.904	0.706	0.875	0.958	0.873	0.698	0.327	0.315	0.32	0.323	1.17	0.966	1.01	0.935
NCI-H596	1.03	1.19	1.08	0.824	0.737	0.507	0.658	0.642	0.654	0.528	0.656	0.324	0.528	0.493	0.589	0.455	0.442	0.459	0.51	0.334
A549	–	0.285	0.313	0.294	0.303	0.336	0.65	0.0828	–	–	–	–	–	–	–	–	0.717	0.914	0.849	0.546
SK-LU-1	0.627	0.702	0.633	0.364	0.412	0.471	0.463	0.276	0.626	0.865	0.781	0.473	0.967	1.19	1.16	0.688	1.19	1.47	0.926	0.471
NCI-H650	0.325	0.272	0.302	0.311	0.425	0.366	0.368	0.397	0.495	0.422	0.544	0.346	1.02	0.993	1.04	0.788	1.04	1.34	1.04	0.65
LC-2-ad	0.775	0.772	0.911	0.702	0.687	0.739	0.733	0.62	0.688	0.801	0.746	0.582	0.272	0.272	0.298	0.295	0.815	0.945	0.84	0.53
NCI-H1792	0.278	0.489	0.602	0.535	0.351	0.312	0.392	0.311	–	–	–	–	0.605	0.909	0.971	0.513	–	0.759	0.735	0.458
HCC-827	0.356	0.335	0.332	0.304	0.745	0.556	0.704	0.608	0.929	0.874	0.793	0.777	0.243	0.286	0.257	0.286	0.959	0.985	0.962	0.755
LOU-NH91	0.833	0.769	0.795	0.786	0.901	0.809	0.976	0.847	0.957	0.835	0.903	0.8	0.356	0.325	0.445	0.439	0.716	0.647	0.756	0.64
NCI-H2009	0.421	0.393	0.399	0.317	0.683	0.815	0.656	0.528	0.716	0.679	0.637	0.447	1.01	1.07	1.1	0.796	1.2	1.3	1.29	0.887
BEN	0.74	0.758	0.926	0.537	1.13	1.19	1.06	0.713	0.637	0.596	0.599	0.487	0.886	0.829	0.913	0.54	–	1.37	1.06	0.806
NCI-H441	–	0.203	0.261	0.197	–	0.799	0.531	0.467	–	1.06	0.864	0.498	–	0.242	0.293	0.268	–	1.18	0.772	0.341
NCI-H1650	0.349	0.38	0.427	0.44	0.702	0.428	0.854	0.608	0.468	0.503	0.541	0.431	0.338	0.427	0.372	0.34	–	–	–	–
NCI-H1915	0.274	0.261	0.26	0.246	0.248	0.264	0.276	0.255	0.496	0.607	0.608	0.491	0.471	0.601	0.515	0.506	1.06	1.17	1.1	0.95
ChaGo-K-1	0.559	0.528	0.541	0.457	0.388	0.402	0.442	0.38	0.755	0.896	0.822	0.582	0.264	0.259	0.246	0.258	–	–	–	–
CAL-12T	–	–	–	–	0.772	0.777	0.788	0.641	0.833	1.01	0.783	0.687	1.08	1.25	0.93	1.01	0.859	1.44	1.57	1.06
NCI-H1563	–	–	–	–	–	–	–	–	–	–	–	–	0.759	0.822	0.799	0.597	0.922	0.947	0.906	0.758
IA-LM	–	–	–	–	1.05	0.656	0.933	0.579	0.428	1.02	0.982	1.05	–	–	–	–	0.765	0.746	0.773	0.778
